One test deals with CT26 murine cancer cells. The test can be described thus: Growth of CT26 murine colon carcinoma tumors in BALB/C mice (Example 1). Type of test: in vivo. Conditions: 50 mg/kg once daily i.p. from day 7, after 30 days, vs untreated control (FIG. 1). The method, then:
Aliquots of cancerous cells are injected into the subscapular space of BALB/C mice to induce colon carcinoma. The tumors are allowed to grow for 7 days, when tumor volume is measured. Once a tumor has formed, drug treatment is initiated (50 mg/kg Compound 1, once daily, i.p. in 0.5% methylcellulose vehicle) and tumor growth is observed and recorded daily. Compounds 1 is shown below:
The mice were sacrificed at thirty days post-injection, and the tumors are isolated from the mice.

Test [1] has as its system tumor-infiltrating immune cells of CT26 tumors. Nature of the test: FACS of tumor-infiltrating immune cells in CT26 tumors (Example 2). Type of test: in vivo, BALB/c mice. Conditions: FACS of tumors excised at day 17-18. The protocol: (§1) BALB/c mice were subcutaneously injected with CT26 cells at day 0 and then divided into four groups at day 7: (1) Compound 1 treatment, (50 mg/kg, i.p. qd), 5 days/week; (2) Isotype group, ip mlgG isotype at days 7, 10 and 14; (3) Anti-PD-1 group, administered i.p. at days 7, 10 and 14; and (4) Combination group, treated with Compound 1 and anti-PD-1 as group 1 and group 3. Tumor volumes were measured every 2 or 3 days. At day 17-18, tumors were excised, dissected, and used to make single cell suspensions. These tumor single cell suspensions were incubated with FC blocker (eBioscience) and then stained with antibodies on ice in the dark. Samples were acquired on a FACSCalibur, LSRII or LSRII yellow (BD Biosciences), and analyzed with FlowJo (Tree Star).

The subject of test [2] is immune cells in the tumor microenvironment of CT26 tumors. Nature of the test: Flow cytometry of immune cells in dissociated CT26 tumors (Example 1). Type of test: in vivo, BALB/C mice. The following applies: 50 mg/kg once daily i.p.; tumors isolated at thirty days post-injection; flow cytometry (FIG. 2). The method, then: The tumors were then enzymatically dissociated into a single cell suspensions, stained with fluorophore-tagged antibodies and are analyzed by flow cytometry. Cells were sorted and analyzed for immune markers. […] In turn, it is believed this this allows the innate immune system to more efficiently target tumor cells, which is consistent with the results observed here (i.e., increased activation of T-cells in the tumor microenvironment).

The test system of another test is CT26 xenograft tumors. The test can be described thus: Growth of CT26 xenograft tumors, Compound 1 alone or with anti-PD-1 (Example 2). The test is classed as in vivo, BALB/c mice. The following applies: Compound 1 50 mg/kg i.p. qd 5 days/week from day 7; anti-PD-1 sub-effective dose i.p. days 7, 10 and 14; isotype group zero out of nine. The method, then:
The effects of Compound 1, alone or combination with sub-effective doses of the checkpoint inhibitor, anti-PD-1, were assessed on the growth of CT26 xenograft tumors in BALB/c mice. Treatment-naïve tumor-bearing mice (i.e., isotype group) were compared with groups of mice receiving monotherapy of Compound 1 defined in Example 1, mice receiving a sub-effective dose of a checkpoint inhibitor (anti-PD-1 antibody), and mice receiving both Compound 1 and a sub-effective dose of anti-PD-1 antibody.
as §1
At the end of experiments, tumors were also weighed.

Take `CN1C(=O)c2c(nn(Cc3ccc(-c4cccc(F)n4)cc3)c2Nc2ccccc2)N2C1=N[C@@H]1CCC[C@@H]12` [Compound 1]: the tumor growth entry in the test on CT26 murine cancer cells is recorded as “significantly slowed tumor growth”. In addition, in test [1], the “numbers of CD45+ tumor (infiltrating) macrophages” value is “significantly decreased numbers” and the “numbers of CD45+ tumor (infiltrating) monocytes” value is given as “significantly decreased numbers”. Further, in test [2], the “CD8 T-cells in the tumor microenvironment” value was “significant increases”, the “macrophage presence in the tumor microenvironment” value is “significant decrease” and the “monocytes in the tumor microenvironment” value is listed as “significant increases”. The “mice showing tumor clearance (tumor volume smaller than 100 mm^3)” value in the test on CT26 xenograft tumors is reported as “one out of five”.

Source of the values: patent publication US12599603B2, “Methods of treatment” (INTRA-CELLULAR THERAPIES, INC., priority 2019, dated 2026).
